Laboratory results reported in ChEMBL document CHEMBL1201862, “PubChem BioAssay data set” (2004).
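Step 1: Grow cells in 96-well plates. Step 2: Expose to compound for 48 hours at 5 concentrations. Step 3: Interpolate endpoints linearly; if unreached, use highest concentration. GI50 is the concentration that inhibits growth by half.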 Activity calls are given as the source filed them. Rule as the data show it: active = GI50 up to about 1.1 µM and inactive = higher.

Key:
Assay in all cases: NCI tumour cell line growth inhibition, 48 h
MDA-MB-231 = test system: MDA-MB-231
NCI-H226 = test system: NCI-H226
M14 = test system: M14
SF-295 = test system: SF-295
K562 = test system: K562
NCI-H23 = test system: NCI-H23
RPMI-8226 = test system: RPMI-8226
NCI-H522 = test system: NCI-H522
SF-539 = test system: SF-539
OVCAR-4 = test system: OVCAR-4
SK-MEL-5 = test system: SK-MEL-5
ACHN = test system: ACHN
UO-31 = test system: UO-31
KM12 = test system: KM12
LOX IMVI = test system: LOX IMVI
HOP-92 = test system: HOP-92
OVCAR-3 = test system: OVCAR-3
A549 = test system: A549
HCT-15 = test system: HCT-15
HT-29 = test system: HT-29
CAKI-1 = test system: CAKI-1
MDA-MB-435 = test system: MDA-MB-435
SK-MEL-28 = test system: SK-MEL-28
Malme-3M = test system: Malme-3M
SNB-75 = test system: SNB-75
DU-145 = test system: DU-145
A498 = test system: A498
HL-60 = test system: HL-60
HOP-62 = test system: HOP-62
SR = test system: SR
NCI-H460 = test system: NCI-H460
SN12C = test system: SN12C
HCC 2998 = test system: HCC 2998
TK-10 = test system: TK-10
SW-620 = test system: SW-620
SF-268 = test system: SF-268
UACC-62 = test system: UACC-62
UACC-257 = test system: UACC-257
OVCAR-5 = test system: OVCAR-5
PC-3 = test system: PC-3
SK-OV-3 = test system: SK-OV-3
IGROV-1 = test system: IGROV-1
T47D = test system: T47D
SK-MEL-2 = test system: SK-MEL-2
COLO 205 = test system: COLO 205
U-251 = test system: U-251
NCI/ADR-RES = test system: NCI/ADR-RES
CCRF-CEM = test system: CCRF-CEM
MDA-N = test system: MDA-N
HCT-116 = test system: HCT-116
MOLT-4 = test system: MOLT-4
RXF 393 = test system: RXF 393
EKVX = test system: EKVX
OVCAR-8 = test system: OVCAR-8
SNB-19 = test system: SNB-19
786-0 = test system: 786-0
MCF7 = test system: MCF7

SMILES: C[N+](C)(C)CCOP(=O)(O)OP(=O)([O-])OCC1CCC(n2ccc(N)nc2=O)O1 (stereo not given)
- GI50 (MDA-MB-231): 77.6 µM (inactive)
- GI50 (NCI-H226): > 100 µM (inactive)
- GI50 (M14): > 100 µM (inactive)
- GI50 (SF-295): > 100 µM (inactive)
- GI50 (K562): > 100 µM (inactive)
- GI50 (NCI-H23): > 100 µM (inactive)
- GI50 (RPMI-8226): > 100 µM (inactive)
- GI50 (NCI-H522): > 100 µM (inactive)
- GI50 (SF-539): > 100 µM (inactive)
- GI50 (OVCAR-4): > 100 µM (inactive)
- GI50 (SK-MEL-5): > 100 µM (inactive)
- GI50 (ACHN): > 100 µM (inactive)
- GI50 (UO-31): > 100 µM (inactive)
- GI50 (KM12): > 100 µM (inactive)
- GI50 (LOX IMVI): > 100 µM (inactive)
- GI50 (HOP-92): > 100 µM (inactive)
- GI50 (OVCAR-3): > 100 µM (inactive)
- GI50 (A549): > 100 µM (inactive)
- GI50 (HCT-15): > 100 µM
- GI50 (HT-29): > 100 µM (inactive)
- GI50 (CAKI-1): > 100 µM (inactive)
- GI50 (MDA-MB-435): > 100 µM (inactive)
- GI50 (SK-MEL-28): > 100 µM (inactive)
- GI50 (Malme-3M): > 100 µM (inactive)
- GI50 (SNB-75): > 100 µM (inactive)
- GI50 (DU-145): > 100 µM (inactive)
- GI50 (A498): > 80.9 µM (inactive)
- GI50 (HL-60): > 100 µM (inactive)
- GI50 (HOP-62): > 100 µM (inactive)
- GI50 (SR): > 100 µM (inactive)
- GI50 (NCI-H460): > 100 µM (inactive)
- GI50 (SN12C): > 100 µM (inactive)
- GI50 (HCC 2998): > 100 µM (inactive)
- GI50 (TK-10): > 100 µM (inactive)
- GI50 (SW-620): > 100 µM (inactive)
- GI50 (SF-268): > 100 µM (inactive)
- GI50 (UACC-62): > 100 µM (inactive)
- GI50 (UACC-257): > 100 µM (inactive)
- GI50 (OVCAR-5): > 100 µM (inactive)

SMILES: O=C(NC/C=C/Br)NC1CCNc2ccccc21 (stereo not given)
- GI50 (MDA-MB-231): 41 µM (inactive)
- GI50 (NCI-H226): 38.8 µM (inactive)
- GI50 (M14): 17.7 µM (inactive)
- GI50 (SF-295): 45.4 µM (inactive)
- GI50 (K562): 30.1 µM (inactive)
- GI50 (PC-3): 37.3 µM (inactive)
- GI50 (SK-OV-3): > 100 µM (inactive)
- GI50 (NCI-H23): 16.8 µM (inactive)
- GI50 (RPMI-8226): 27.2 µM (inactive)
- GI50 (IGROV-1): 76.6 µM (inactive)
- GI50 (NCI-H522): 74 µM (inactive)
- GI50 (SF-539): 20.5 µM (inactive)
- GI50 (OVCAR-4): 72.1 µM (inactive)
- GI50 (SK-MEL-5): 19.5 µM (inactive)
- GI50 (ACHN): 58.3 µM (inactive)
- GI50 (T47D): 36.5 µM (inactive)
- GI50 (UO-31): 27.8 µM (inactive)
- GI50 (KM12): 38.2 µM (inactive)
- GI50 (LOX IMVI): 25.6 µM (inactive)
- GI50 (SK-MEL-2): 30.1 µM (inactive)
- GI50 (OVCAR-3): 47.2 µM (inactive)
- GI50 (A549): 32.2 µM (inactive)
- GI50 (HCT-15): 37.3 µM
- GI50 (COLO 205): 18.7 µM (inactive)
- GI50 (U-251): 73.8 µM (inactive)
- GI50 (HT-29): 15.7 µM (inactive)
- GI50 (CAKI-1): 42.1 µM (inactive)
- GI50 (MDA-MB-435): 31.6 µM (inactive)
- GI50 (SK-MEL-28): 33.7 µM (inactive)
- GI50 (NCI/ADR-RES): 32.1 µM (inactive)
- GI50 (CCRF-CEM): 36.4 µM (inactive)
- GI50 (Malme-3M): 31.6 µM (inactive)
- GI50 (SNB-75): 45 µM (inactive)
- GI50 (MDA-N): 31.9 µM (inactive)
- GI50 (DU-145): 52.1 µM (inactive)
- GI50 (A498): 31.9 µM (inactive)
- GI50 (HL-60): 32.1 µM (inactive)
- GI50 (HOP-62): 45.2 µM (inactive)
- GI50 (SR): 35 µM (inactive)
- GI50 (HCT-116): 30.1 µM (inactive)
- GI50 (MOLT-4): 56.8 µM (inactive)
- GI50 (NCI-H460): 34.9 µM (inactive)
- GI50 (SN12C): 45.4 µM (inactive)
- GI50 (RXF 393): 29.2 µM (inactive)
- GI50 (EKVX): 47.6 µM (inactive)
- GI50 (OVCAR-8): 52.7 µM (inactive)
- GI50 (HCC 2998): 27.9 µM (inactive)
- GI50 (TK-10): 42.3 µM (inactive)
- GI50 (SW-620): 52.8 µM (inactive)
- GI50 (SF-268): 77.4 µM (inactive)
- GI50 (SNB-19): 41.3 µM (inactive)
- GI50 (UACC-62): 31.3 µM (inactive)
- GI50 (786-0): 26.6 µM (inactive)
- GI50 (UACC-257): 21.8 µM (inactive)
- GI50 (OVCAR-5): 55.3 µM (inactive)
- GI50 (MCF7): 19.3 µM (inactive)

SMILES: Cc1ccc(S(=O)(=O)N2CCN3CCN(CCN(C)CCN4CCN(CC4)CCN(S(=O)(=O)c4ccc(C)cc4)CCN(S(=O)(=O)c4ccc(C)cc4)CCN(S(=O)(=O)c4ccc(C)cc4)CCN(S(=O)(=O)c4ccc(C)cc4)CCN4CCN(CCN(C)CCN5CCN(CC5)CCN(S(=O)(=O)c5ccc(C)cc5)CCN(S(=O)(=O)c5ccc(C)cc5)CCN(S(=O)(=O)c5ccc(C)cc5)CC2)CC4)CC3)cc1
- GI50 (M14): 1.95 µM (inactive)
- GI50 (K562): 0.248 µM (active)
- GI50 (PC-3): 1.85 µM (inactive)
- GI50 (RPMI-8226): 0.308 µM (active)
- GI50 (IGROV-1): 1.97 µM (inactive)
- GI50 (SF-539): 2.06 µM (inactive)
- GI50 (SK-MEL-5): 1.63 µM (inactive)
- GI50 (ACHN): 1.79 µM (inactive)
- GI50 (KM12): 0.541 µM (active)
- GI50 (HOP-92): 1.04 µM (active)
- GI50 (A549): 1.82 µM (inactive)
- GI50 (HCT-15): 1.49 µM
- GI50 (U-251): 0.235 µM (active)
- GI50 (HT-29): 0.208 µM (active)
- GI50 (NCI/ADR-RES): > 100 µM (inactive)
- GI50 (CCRF-CEM): 0.303 µM (active)
- GI50 (SNB-75): 1.35 µM (inactive)
- GI50 (MDA-N): 1.52 µM (inactive)
- GI50 (HL-60): 0.407 µM (active)
- GI50 (SR): 0.254 µM (active)
- GI50 (MOLT-4): 0.437 µM (active)
- GI50 (NCI-H460): 0.553 µM (active)
- GI50 (EKVX): 2.33 µM (inactive)
- GI50 (OVCAR-8): 2.1 µM (inactive)
- GI50 (HCC 2998): 0.766 µM (active)
- GI50 (SW-620): 1.05 µM (active)
- GI50 (SF-268): 1.14 µM (inactive)
- GI50 (UACC-257): 1.77 µM (inactive)
- GI50 (OVCAR-5): 1.87 µM (inactive)
- GI50 (MCF7): 1.5 µM (inactive)
